Reference: PMC3462775 (PLoS ONE, 2012)
In brackets after ≈: the same amount, converted by molar mass. Bridge positions count the residues as written; N and C are the ends. Square brackets hold non-standard residues; d marks the D form. Peptide text beside a SMILES is read from it. I, II: the chains in the order shown. βAla = NCCC(=O)O

Tests used:
[1] = test system: S. aureus ATCC 25923 biofilm; format: cell-based, Staphylococcus aureus; conditions: ATCC 25923, 2 h
Experimental: (§1) Biofilm formation was performed by adapting the procedure described in [39] using the Calgary Biofilm Device (Innovotech, Innovotech Inc. Edmonton, Canada). Briefly, 96-well plates containing the bacterial inoculum were sealed with lids bearing 96 pegs on which the biofilm could build up. The plates were placed in an orbital incubator at 35°C (for P. aeruginosa and E. coli) or 37°C (for S. aureus) for 20 h under agitation at 125 rpm. Once biofilms formed, the lids were removed from the plates and the pegs were rinsed twice with phosphate buffered saline (PBS) to remove planktonic cells. The peg-lid was then transferred to a 96-well challenge microtiter plate, each well containing 200 µl of a twofold serial dilution of each peptide in LB medium. The challenge plate was incubated at 37°C for 2 hours. Peptide activity on pre-formed biofilm was evaluated by two independent methods: (i) visual observation of bacterial growth and (ii) counting of living bacterial cells after peptide treatment. In the first case, the peg-lid was removed from the challenge plate, rinsed with PBS and used to cover a 96-well recovery microtiter plate, each well containing 200 µl LB medium. […] Colony forming units (CFU) were expressed as percentage with respect to control (peptide-untreated biofilms). […]

[2] = Binding of LPS and LTA to immobilized peptides, surface plasmon resonance; conditions: SPR, biotinylated peptides immobilized on SA flow cells; LPS/LTA 10 µg/ml in HBS-EP+ pH 7.4, injected 180 sec at 30 µl/min
Experimental: Biotinylated peptides were immobilized on SA coated flow cells. M33-L and M33-D peptides, diluted to 10 µg/ml in HBS-EP+ buffer (10 mM Hepes, 150 mM NaCl, 3.4 mM EDTA, 0.05% polysorbate 20 pH 7.4), were injected for 90 sec at a flow rate of 10 µl/min, obtaining 550 RU and 580 RU for M33-L and M33-D respectively.
LTA and LPS molecules from different species (LPS from E. coli, K. pneumonia, P. aeruginosa and LTA from S. aureus and S. faecalis, were obtained from Sigma-Aldrich: L-3012, L-4268, L9143, L2515 and L4015, respectively) were diluted in HBS-EP+ buffer at the concentration of 10 µg/ml and injected for 180 sec with a flow rate of 30 µl/min over immobilized peptides. An empty flow cell was used as reference.

[3] = target: T1, Staphylococcus aureus aureolysin (Staphylococcus aureus, UniProt P81177); format: in vitro ADME; conditions: 1 mM CaCl2 pH 7.8, 37°C; for time of stability / degradation on incubation with aureolysin: 300 µg peptide + 3 µg S. aureus aureolysin in 300 µl 20 mM Tris-HCl, HPLC and MALDI MS read-out
T1 construct: purchased BioCol GmbH
Experimental: (§2) Tetrabranched M33-L or M33-D peptides (300 µg) were incubated at 37°C with Staphylococcus aureus aureolysin (3 µg, BioCol GmbH) or Pseudomonas aeruginosa elastase (3 µg, Calbiochem) in 300 µl 20 mM Tris-HCl, 1 mM CaCl2 pH 7.8. At indicated time intervals, 50 µl aliquots were removed, diluted with 950 µl of 0.1% trifluoroacetic acid (TFA)/water and analyzed by HPLC and mass spectrometry. Liquid chromatography was performed on Phenomenex Jupiter C18 analytical column (300 Å, 5 µm, 250×4.6 mm) in a 30 min gradient, using TFA 0.1%/water as solvent A and methanol as solvent B. Mass spectrometry analysis was performed on withdrawn samples and repeated on HPLC-eluted peaks with a Bruker Daltonic ultraflex MALDI TOF/TOF mass spectrometer.

[4] = target: T2, Pseudomonas aeruginosa elastase (Pseudomonas aeruginosa, UniProt P14756); format: in vitro ADME; conditions: 1 mM CaCl2 pH 7.8, 37°C; for stability to elastase (in words): HPLC and MS
T2 construct: purchased Calbiochem
Experimental: as §2

[5] = test system: E. coli ATCC 25922 biofilm; format: cell-based, Escherichia coli; conditions: ATCC 25922, 20 h
Experimental: Biofilm formation was performed by adapting the procedure described in [39] using the Calgary Biofilm Device (Innovotech, Innovotech Inc. Edmonton, Canada). Briefly, 96-well plates containing the bacterial inoculum were sealed with lids bearing 96 pegs on which the biofilm could build up. The plates were placed in an orbital incubator at 35°C (for P. aeruginosa and E. coli) or 37°C (for S. aureus) for 20 h under agitation at 125 rpm. Once biofilms formed, the lids were removed from the plates and the pegs were rinsed twice with phosphate buffered saline (PBS) to remove planktonic cells. The peg-lid was then transferred to a 96-well challenge microtiter plate, each well containing 200 µl of a twofold serial dilution of each peptide in LB medium. The challenge plate was incubated at 37°C for 2 hours. Peptide activity on pre-formed biofilm was evaluated by two independent methods: (i) visual observation of bacterial growth and (ii) counting of living bacterial cells after peptide treatment. In the first case, the peg-lid was removed from the challenge plate, rinsed with PBS and used to cover a 96-well recovery microtiter plate, each well containing 200 µl LB medium. The recovery plate was sealed, incubated at 37°C for 4 hours and then observed for any visible growth of bacteria detached from the peptide-treated biofilm. […]

[6] = test system: E.coli ATCC 25922; experiment: MIC, standard microdilution assay; format: cell-based, Escherichia coli; conditions: Reference strain, wild type; CLSI microdilution, cation-supplemented Mueller-Hinton broth, 5x10^4 CFU/well, 18–20 h at 37°C, triplicate
Experimental: MICs were determined using a standard microdilution assay as recommended by the Clinical and Laboratory Standards Institute. Assays were performed in triplicate using cation-supplemented Mueller-Hinton (MH) broth (Becton Dickinson, Franklin Lakes, NJ, USA) and a bacterial inoculum of 5x10^4 CFU/well, in a final volume of 100 µl. The tested concentrations ranged from 0.1 µM to 24 µM for both peptides. Results were recorded after 18–20 h of incubation at 37°C.

[7] = test system: P. aeruginosa ATCC 27853 biofilm; format: cell-based, Pseudomonas aeruginosa; conditions: ATCC 27853, 2 h
Experimental: as §1

[8] = 300 µg peptide + 3 µg P. aeruginosa elastase, 20 mM Tris-HCl

T1 sequence (P81177 209-509): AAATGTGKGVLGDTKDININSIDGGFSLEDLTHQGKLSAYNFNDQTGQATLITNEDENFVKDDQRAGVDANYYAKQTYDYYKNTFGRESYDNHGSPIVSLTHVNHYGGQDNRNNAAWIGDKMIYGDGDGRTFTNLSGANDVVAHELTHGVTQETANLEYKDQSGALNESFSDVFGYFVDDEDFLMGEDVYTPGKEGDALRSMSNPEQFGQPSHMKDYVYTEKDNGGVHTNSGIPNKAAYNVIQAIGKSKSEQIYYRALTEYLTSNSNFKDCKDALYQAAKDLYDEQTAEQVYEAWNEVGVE
T2 sequence (P14756 198-498): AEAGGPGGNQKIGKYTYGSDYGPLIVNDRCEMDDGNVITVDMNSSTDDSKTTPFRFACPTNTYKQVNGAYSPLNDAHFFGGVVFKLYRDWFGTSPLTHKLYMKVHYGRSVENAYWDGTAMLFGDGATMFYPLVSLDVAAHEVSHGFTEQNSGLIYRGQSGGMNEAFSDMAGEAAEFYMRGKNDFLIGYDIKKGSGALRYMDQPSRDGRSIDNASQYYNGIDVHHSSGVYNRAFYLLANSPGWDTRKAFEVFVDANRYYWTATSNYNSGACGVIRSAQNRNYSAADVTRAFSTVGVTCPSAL

Row | Compound | Minimum bactericidal concentration on biofilm (MBCb) [1] [µM] | binding and kinetic rates of LPS and LTA, M33-L compared with M33-D (in words) [2] | time of stability / degradation on incubation with aureolysin [3] [h] | time of resistance to degradation by elastase ([4]; 300 µg peptide + 3 µg P. aeruginosa elastase in 300 µl 20 mM Tris-HCl, HPLC and MALDI MS read-out) [h] | stability to elastase (in words) [4, 8] | Minimum biofilm eradication concentration (MBEC) [5] [µM] | MIC [6] [µM] | Minimum bactericidal concentration on biofilm (MBCb) [7] [µM] | stability to aureolysin (in words) ([3]; 300 µg peptide + 3 µg S. aureus aureolysin, 20 mM Tris-HCl, HPLC and MS) | stability after 5 h incubation with elastase (in words) ([4]; 5 h, 300 µg peptide + 3 µg P. aeruginosa elastase, 20 mM Tris-HCl, HPLC peak of intact peptide still present)
1 | CC[C@@H](C)[C@@H](NC(=O)[C@@H](CCCCN)NC(=O)[C@H](N)CCCCN)C(=O)N[C@H](CCCNC(=N)N)C(=O)N[C@@H](C(=O)N[C@H](CCCNC(=N)N)C(=O)N[C@H](CC(C)C)C(=O)N[C@H](CO)C(=O)N[C@H](C)C(=O)NCCCC[C@H](NC(=O)[C@@H](C)NC(=O)[C@@H](CO)NC(=O)[C@@H](CC(C)C)NC(=O)[C@@H](CCCNC(=N)N)NC(=O)[C@H](NC(=O)[C@@H](CCCNC(=N)N)NC(=O)[C@H](NC(=O)[C@@H](CCCCN)NC(=O)[C@H](N)CCCCN)[C@H](C)CC)C(C)C)C(=O)NCCCC[C@H](NC(=O)[C@H](CCCCNC(=O)[C@@H](C)NC(=O)[C@@H](CO)NC(=O)[C@@H](CC(C)C)NC(=O)[C@@H](CCCNC(=N)N)NC(=O)[C@H](NC(=O)[C@@H](CCCNC(=N)N)NC(=O)[C@H](NC(=O)[C@@H](CCCCN)NC(=O)[C@H](N)CCCCN)[C@H](C)CC)C(C)C)NC(=O)[C@@H](C)NC(=O)[C@@H](CO)NC(=O)[C@@H](CC(C)C)NC(=O)[C@@H](CCCNC(=N)N)NC(=O)[C@H](NC(=O)[C@@H](CCCNC(=N)N)NC(=O)[C@H](NC(=O)[C@@H](CCCCN)NC(=O)[C@H](N)CCCCN)[C@H](C)CC)C(C)C)C(=O)NCCC(=O)O)C(C)C [M33-D] (I: H-[dK][dK][dI][dR][dV][dR][dL][dS][dA]KK[βAla]-OH / II: H-[dK][dK][dI][dR][dV][dR][dL][dS][dA]K / III: H-[dK][dK][dI][dR][dV][dR][dL][dS][dA] / IV: H-[dK][dK][dI][dR][dV][dR][dL][dS][dA]; amide I:10-IV:C, I:11-II:C, II:10-III:C; N-terminus assumed) | 1.5 (≈ 7.02 µg/mL) | No significant difference in binding or kinetic rates | ≥ 24 | ≥ 24 | highly stable | 3 | 3 (≈ 14 µg/mL) | 6 (≈ 28.1 µg/mL) | – | –
2 | CC[C@H](C)[C@H](NC(=O)[C@H](CCCCN)NC(=O)[C@@H](N)CCCCN)C(=O)N[C@@H](CCCNC(=N)N)C(=O)N[C@H](C(=O)N[C@@H](CCCNC(=N)N)C(=O)N[C@@H](CC(C)C)C(=O)N[C@@H](CO)C(=O)N[C@@H](C)C(=O)NCCCC[C@H](NC(=O)[C@H](C)NC(=O)[C@H](CO)NC(=O)[C@H](CC(C)C)NC(=O)[C@H](CCCNC(=N)N)NC(=O)[C@@H](NC(=O)[C@H](CCCNC(=N)N)NC(=O)[C@@H](NC(=O)[C@H](CCCCN)NC(=O)[C@@H](N)CCCCN)[C@@H](C)CC)C(C)C)C(=O)NCCCC[C@H](NC(=O)[C@H](CCCCNC(=O)[C@H](C)NC(=O)[C@H](CO)NC(=O)[C@H](CC(C)C)NC(=O)[C@H](CCCNC(=N)N)NC(=O)[C@@H](NC(=O)[C@H](CCCNC(=N)N)NC(=O)[C@@H](NC(=O)[C@H](CCCCN)NC(=O)[C@@H](N)CCCCN)[C@@H](C)CC)C(C)C)NC(=O)[C@H](C)NC(=O)[C@H](CO)NC(=O)[C@H](CC(C)C)NC(=O)[C@H](CCCNC(=N)N)NC(=O)[C@@H](NC(=O)[C@H](CCCNC(=N)N)NC(=O)[C@@H](NC(=O)[C@H](CCCCN)NC(=O)[C@@H](N)CCCCN)[C@@H](C)CC)C(C)C)C(=O)NCCC(=O)O)C(C)C [M33-L] (I: H-KKIRVRLSAKK[βAla]-OH / II: H-KKIRVRLSAK / III: H-KKIRVRLSA / IV: H-KKIRVRLSA; amide I:10-IV:C, I:11-II:C, II:10-III:C; N-terminus assumed) | 12 (≈ 56.2 µg/mL) | No significant difference in binding or kinetic rates | ≤ 1 | – | poorly stable | 3 | 3 (≈ 14 µg/mL) | 6 (≈ 28.1 µg/mL) | not at all stable | moderate peptide stability
